Reference: PubChem BioAssay (NCI)
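Results reflect a 48-hour exposure of cells in 96-well plates to compound at five concentrations. TGI is the concentration that stops growth completely.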

Columns and labels:
Assay in all cases: inhibition of tumour cell growth, NCI panel, 48 h
SK-MEL-28 melanoma = test system: SK-MEL-28 melanoma
HOP-92 NSCLC = test system: HOP-92 NSCLC
NCI-H226 lung = test system: NCI-H226 lung
786-0 renal = test system: 786-0 renal
ACHN renal = test system: ACHN renal
TK-10 renal = test system: TK-10 renal
SF-539 CNS = test system: SF-539 CNS
LOX IMVI melanoma = test system: LOX IMVI melanoma
U251 CNS = test system: U251 CNS
UACC-62 melanoma = test system: UACC-62 melanoma

SMILES	TGI (SK-MEL-28 melanoma)	TGI (HOP-92 NSCLC)	TGI (NCI-H226 lung)	TGI (786-0 renal)	TGI (ACHN renal)	TGI (TK-10 renal)	TGI (SF-539 CNS)	TGI (LOX IMVI melanoma)	TGI (U251 CNS)	TGI (UACC-62 melanoma)
C=CCC1(C)CCCN(Cc2ccccc2)C1=O (stereo not given)	> 10 µM	> 10 µM	> 10 µM	> 10 µM	> 10 µM	> 10 µM	> 10 µM	> 10 µM	> 10 µM	> 10 µM
O=[N+]([O-])c1ccc(C(O)(C#CCN2CCCC2)c2ccccc2)cc1 (stereo not given)	34 µM	51.7 µM	> 100 µM	> 100 µM	> 100 µM	> 100 µM	> 100 µM	43.9 µM	> 100 µM	87.4 µM
N#CCCC1(CCC#N)CCCCCCCCC(CCC#N)(CCC#N)C(O)C1O (stereo not given)	> 100 µM	> 100 µM	> 100 µM	> 100 µM	> 100 µM	> 100 µM	85.8 µM	> 100 µM	> 100 µM	> 100 µM
CC(C)(CCC(C)(C)N1OC1c1ccccc1)N1OC1c1ccccc1 (stereo not given)	> 100 µM	> 100 µM	> 100 µM	> 100 µM	35.8 µM	> 100 µM	> 100 µM	> 100 µM	> 100 µM	> 100 µM
O=c1[nH]c2nc3ccccc3c(=O)n2/c1=C/c1ccco1	> 100 µM	> 100 µM	> 100 µM	> 100 µM	> 100 µM	> 100 µM	> 100 µM	> 100 µM	> 100 µM	> 100 µM
CCOC(=O)Cn1nnc2ccc(Nc3nc4ccccc4nc3-c3ccccc3)cc21	> 100 µM	> 100 µM	> 100 µM	> 100 µM	> 100 µM	62.5 µM	> 100 µM	> 100 µM	> 100 µM	> 100 µM
c1ccc(CC2COC(c3cccs3)=N2)cc1 (stereo not given)	> 100 µM	> 100 µM	> 100 µM	> 100 µM	> 100 µM	> 100 µM	> 100 µM	> 100 µM	> 100 µM	> 100 µM
CCCCCCCCCCCC[N+](CCCCCCCCCCCC)=C1SCCS1	22.9 µM	23.1 µM	28.2 µM	11.8 µM	25.1 µM	28.8 µM	25.5 µM	4.52 µM	13.7 µM	22.9 µM
Nc1ccc(Nc2cc(=O)[nH]c(=O)[nH]2)cc1Cl	> 100 µM	> 100 µM	> 100 µM	> 100 µM	> 100 µM	> 100 µM	> 100 µM	> 100 µM	> 100 µM	> 100 µM
O=c1[nH]nc(-c2ccccc2)n1O	> 100 µM	> 100 µM	> 100 µM	> 100 µM	> 100 µM	> 100 µM	> 100 µM	> 100 µM	> 100 µM	> 100 µM
CN=C(Nc1cccc(C(F)(F)F)c1)SCc1ccc(N=C=S)cc1	48.9 µM	30.5 µM	45 µM	31 µM	28.7 µM	23.5 µM	31.5 µM	18.4 µM	29.8 µM	24.6 µM
CCc1ccc2c(c1)N(CC(C)CN(C)C)c1ccccc1S2 (stereo not given)	5.45 µM	15.4 µM	25.5 µM	12.2 µM	15.5 µM	11.4 µM	24.1 µM	10.3 µM	17.4 µM	13.1 µM
CC(=O)OCC1OC(OCCCOP(=S)(OCCC#N)OCC2OC(n3ccc(N)nc3=O)C(OC(=O)c3ccccc3)C2OC(=O)c2ccccc2)C(OC(C)=O)C(OC(C)=O)C1OC(C)=O (stereo not given)	> 100 µM	> 100 µM	> 100 µM	> 100 µM	> 100 µM	> 100 µM	> 100 µM	> 100 µM	> 100 µM	> 100 µM
C=C1CC[C@@H](C)[C@](C)(CCc2ccoc2)C/C=C\C=C/1C(=O)O	48.6 µM	> 100 µM	> 100 µM	> 100 µM	> 100 µM	> 100 µM	42.6 µM	57 µM	> 100 µM	> 100 µM
